Where two headings read alike, the source gives them in different places.
Legend:
229E = 229E MRC5 CPE assay (cytopathic experiment); assay type: cell-based, coronavirus 229E (HCoV-229E)
Protocol: (§1) Cells were seeded into microplates at a certain density and cultured overnight in a incubator at 5% CO2, 37° C. The next day, double-diluted compound and virus were added. It was set up a cell control group (cells without treatment with a compound or virus infection), a virus control group (cells infected with virus, no compound treatment) and a culture medium control group (medium only). Cells were cultured in the incubator for 3 days (229E) or 7 days (OC43). Cytotoxicity experiments were performed under the same conditions as antiviral experiments, but without virus infection. Cell viability was tested using a cell viability assay kit Cell Titer Glo (Promega).
(§2) The antiviral activity and cytotoxicity of the compounds were expressed by the inhibition rate (%) and cell viability (%) of the compounds against virus-induced cytopathic effects at different concentrations, respectively. Nonlinear fitting analysis on the inhibition rate and cell viability of the compounds were carried out with the GraphPad Prism, and the half effective concentration (EC50), the […] effective concentration (EC90), the half cytotoxic concentration (CC50) and the 90% cytotoxic concentration of the compound […] values were calculated.

OC43 = OC43 Huh7 CPE assay (cytopathic experiment); assay type: cell-based, coronavirus OC43 (HCoV-OC43); conditions: for EC50: read-out: OC43 Huh7 CPE assay (μM) EC50; for EC90: read-out: OC43 Huh7 CPE assay (μM) EC90
Protocol: as §1, §2

[1] = Human coronavirus 229E, MRC5, 72 h, read-out: 229E MRC5 CPE assay (μM) EC50
[2] = Human coronavirus 229E, MRC5, 72 h, read-out: 229E MRC5 CPE assay (μM) EC90
[3] = Betacoronavirus 1, OC43, Huh-7, 168 h
[4] = Human coronavirus 229E, MRC5, 72 h; read-out: 229E MRC5 CPE assay (μM) EC50
[5] = Human coronavirus 229E, MRC5, 72 h; read-out: 229E MRC5 CPE assay (μM) EC90
[6] = Betacoronavirus 1, Huh-7, 168 h, Huh7 cells, OC43 virus, 7 days, Cell Titer Glo

Row | SMILES | EC50 (229E; [1]) | EC90 (229E; [2]) | EC50 (OC43; [3]) | EC90 (OC43; [3]) | EC50 (229E; [4]) | EC90 (229E; [5]) | EC50 (OC43; [6]) | EC90 (OC43; [6])
1 | CCCC(CCC)C(=O)OCO[P@](=O)(N[C@@H](C)C(=O)OCC)OC[C@H]1O[C@@](C#N)(c2ccc3c(N)ncnn23)[C@H](O)[C@@H]1O [Compound 097] | < 0.1 µM | 0.1 to 0.5 µM | 0.1 to 0.5 µM | 0.1 to 0.5 µM |  |  |  | 
2 | CC(C)(C)C(=O)OCO[P@@](=O)(OC[C@H]1O[C@@](C#N)(c2ccc3c(N)ncnn23)[C@H](O)[C@@H]1O)Oc1ccccc1 [Compound 214] |  |  | > 0.5 µM | > 0.5 µM | > 0.5 µM | > 0.5 µM |  | 
3 | [2H]c1cc([C@]2(C#N)O[C@@H]3CO[P@@](=O)(OCOC(=O)C(CCC)CCC)O[C@H]3[C@H]2O)n2ncnc(N)c12 [Compound 211] | < 0.1 µM | < 0.1 µM | 0.1 to 0.5 µM | > 0.5 µM |  |  |  | 
4 | [2H]c1cc([C@]2(C#N)O[C@@H]3CO[P@](=O)(O)O[C@H]3[C@H]2OC(=O)C(CCC)CCC)n2ncnc(N)c12 [Compound 208] | > 0.5 µM | > 0.5 µM | 0.1 to 0.5 µM | 0.1 to 0.5 µM |  |  |  | 
5 | CC(C)OC(=O)C(C)(C)N[P@](=O)(OCOC(=O)C1CCCC1)OC[C@H]1O[C@@](C#N)(c2ccc3c(N)ncnn23)[C@H](O)[C@@H]1O [Compound 268] | > 0.5 µM | > 0.5 µM | > 0.5 µM | > 0.5 µM |  |  |  | 
6 | CCO[P@]1(=O)OC[C@H]2O[C@@](C#N)(c3ccc4c(N)ncnn34)[C@H](O)[C@@H]2O1 [Compound 231] |  |  |  |  | > 0.5 µM | > 0.5 µM | > 0.5 µM | > 0.5 µM
7 | CCCC(CCC)C(=O)OCO[P@](=O)(N[C@@H](C)C(=O)OC)OC[C@H]1O[C@@](C#N)(c2ccc3c(N)ncnn23)[C@H](O)[C@@H]1O [Compound 095] | < 0.1 µM | 0.1 to 0.5 µM | < 0.1 µM | 0.1 to 0.5 µM |  |  |  | 
8 | [2H]c1cc([C@]2(C#N)O[C@H](COP(=O)(OCOC(=O)C(CCC)CCC)OCOC(=O)C(CCC)CCC)[C@@H](O)[C@H]2O)n2ncnc(N)c12 [Compound 212] | 0.1 to 0.5 µM | > 0.5 µM | 0.1 to 0.5 µM | > 0.5 µM |  |  |  | 
9 | [2H]c1cc([C@]2(C#N)O[C@@H]3CO[P@@](=O)(OCCSC(=O)C(C)(C)C)O[C@H]3[C@H]2O)n2ncnc(N)c12 [Compound 239] | < 0.1 µM | < 0.1 µM | < 0.1 µM | 0.1 to 0.5 µM |  |  |  | 
10 | CCCC(CCC)C(=O)O[C@@H]1[C@@H]2OP(=O)(O)OC[C@H]2O[C@@]1(C#N)c1ccc2c(N)ncnn12 [Compound 057] | > 0.5 µM | > 0.5 µM | 0.1 to 0.5 µM | > 0.5 µM |  |  |  | 
11 | CCC(CC)COC(=O)[C@H](C)N[P@@](=O)(OC[C@H]1O[C@@](C#N)(c2ccc3c(N)ncnn23)[C@H](O)[C@@H]1O)Oc1ccc(Nc2ccnc3cc(Cl)ccc23)cc1CN(CC)CC [Compound 063] |  |  |  |  | > 0.5 µM | > 0.5 µM | > 0.5 µM | > 0.5 µM
12 | CCCC(CCC)C(=O)OCO[P@]1(=O)OC[C@H]2O[C@@](C#N)(c3ccc4c(N)ncnn34)[C@H](O)[C@@H]2O1 [Compound 130] | < 0.1 µM | 0.1 to 0.5 µM | < 0.1 µM | 0.1 to 0.5 µM |  |  |  | 
13 | CCC(CC)COC(=O)[C@H](C)NP(=O)(OC[C@H]1O[C@@](C#N)(c2ccc3c(N)ncnn23)[C@H](O)[C@@H]1O)Oc1ccc(Nc2ccnc3cc(Cl)ccc23)cc1CN(CC)CC (stereo partly shown) [Compound 016] |  |  |  |  | > 0.5 µM | > 0.5 µM | > 0.5 µM | > 0.5 µM
14 | CCCC(CCC)C(=O)OCOP(=O)(NC(C)(C)C(=O)OC(C)C)OC[C@H]1O[C@@](C#N)(c2ccc3c(N)ncnn23)[C@H](O)[C@@H]1O (stereo partly shown) [Compound 034] | 0.1 to 0.5 µM | > 0.5 µM | 0.1 to 0.5 µM | > 0.5 µM |  |  |  | 
15 | CCC(CC)COC(=O)[C@H](C)N[P@@](=O)(OCOC(=O)c1cccnc1)OC[C@H]1O[C@@](C#N)(c2ccc3c(N)ncnn23)[C@H](O)[C@@H]1O [Compound 174] | > 0.5 µM | > 0.5 µM | > 0.5 µM | > 0.5 µM |  |  |  | 
16 | CCC(CC)COC(=O)[C@H](C)NP(=O)(OC[C@H]1O[C@@](C#N)(c2ccc3c(N)ncnn23)[C@H](O)[C@@H]1O)ONC(=N)c1ccccc1 (stereo partly shown) [Compound 028] | > 0.5 µM | > 0.5 µM | > 0.5 µM | > 0.5 µM |  |  |  | 
